In brackets after ≈: the same amount, converted by molar mass. Read-outs that look alike come from different tables or passages of the source.
Key:
M. kansasii = assay: Microplate Alamar Blue assay, MIC; format: cell-based, Mycobacterium kansasii; conditions: for MIC: Mycobacterium kansasii, read-out: Antimycobacterial Activity MIC M. kans.
Mtb H37Rv = assay: Microplate Alamar Blue assay, MIC; format: cell-based, Mycobacterium tuberculosis; conditions: for MIC: Mycobacterium tuberculosis, H37RV
M. aurum = assay: Microdilution broth resazurin assay, MIC; format: cell-based, Mycolicibacterium aurum
HepG2 [1] = conditions: for IC50: cytotoxicity
M. avium = assay: Microdilution broth resazurin assay, MIC; format: cell-based, Mycobacterium avium; conditions: for MIC: Mycobacterium avium, read-out: Antimycobacterial Activity MIC M. avium
Mtb H37Ra = assay: Microdilution broth resazurin assay, MIC; format: cell-based, Mycobacterium tuberculosis
MRC-5 [2] = conditions: for IC50: cytotoxicity
M. smegmatis = assay: Microdilution broth resazurin assay, MIC; format: cell-based, Mycolicibacterium smegmatis
HepG2 [3] = assay: cells; conditions: Homo sapiens
MRC-5 [4] = assay: cells; conditions: Homo sapiens
MDR Mtb H37Rv = assay: microbe, parasite or virus in culture; format: cell-based; conditions: Mycobacterium tuberculosis, read-out: MIC MDR Mtb H37Rv
Bacteria, incl. SA = assay: Antibacterial microdilution screening (eight strains); format: cell-based; conditions: read after 24 and 48 h, highest tested concentration 500 μM
Fungi = assay: Antifungal microdilution screening (eight strains); format: cell-based; conditions: read after 24 and 48 h (72 and 120 h for TI), highest tested concentration 500 μM
[5] = tested on: Candida parapsilosis ATCC 22019, CCM 8260; assay: Antifungal microdilution broth, quality standards; format: cell-based
[6] = tested on: Candida albicans ATCC 24433, CCM 8320; assay: Antifungal microdilution broth, quality standards; format: cell-based; conditions: 24 h
[7] = tested on: Trichophyton interdigitale ATCC 9533, CCM 8377; assay: Antifungal microdilution broth, quality standards; format: cell-based; conditions: 120 h; for MIC: read-out: MIC, visual detection, Trichophyton interdigitale
[8] = tested on: Candida tropicalis ATCC 750, CCM 8264; assay: Antifungal microdilution broth, quality standards; format: cell-based; conditions: 24 h; for MIC: read-out: MIC, visual detection, Candida tropicalis
[9] = tested on: Candida krusei ATCC 6258, CCM 8271; assay: Antifungal microdilution broth, quality standards; format: cell-based
[10] = tested on: Lichtheimia corymbifera CCM 8077; assay: Antifungal microdilution broth, quality standards; format: cell-based; conditions: CCM8077, 48 h; for MIC: read-out: MIC, visual detection, Lichtheimia corymbifera
[11] = tested on: Aspergillus fumigatus ATCC 204305; assay: Antifungal microdilution broth, quality standards; format: cell-based; conditions: ATCC204305, 48 h; for MIC: read-out: MIC, visual detection, Aspergillus fumigatus
[12] = tested on: Aspergillus flavus CCM 8363; assay: Antifungal microdilution broth, quality standards; format: cell-based; conditions: CCM8363, 48 h; for MIC: read-out: MIC, visual detection, Aspergillus flavus
[13] = Table S5 matching pairs series A and B
[14] = read-out: IC50 for HepG2 [24 h], 24 h incubation
[15] = read-out: IC50 for MRC-5 [24 h], 24 h incubation
[16] = Microplate Alamar Blue assay, read-out: Antimycobacterial Activity MIC Mtb H37Rv
[17] = calculated from the measured MIC in mass concentration units, read-out: MIC Mtb H37Rv
[18] = HepG2, 24 h, read-out: IC50 for HepG2 [24 h]
[19] = HepG2, 72 h, read-out: IC50 for HepG2 [72 h]
[20] = MRC5, 24 h, read-out: IC50 for MRC-5 [24 h]
[21] = MRC5, 72 h, read-out: IC50 for MRC-5 [72 h]
[22] = Mycobacterium tuberculosis, H37RA; calculated from the measured MIC in mass concentration units; read-out: MIC Mtb H37Ra
[23] = Mycolicibacterium smegmatis, read-out: Antimycobacterial Activity MIC M. smeg.
[24] = Mycolicibacterium aurum; read-out: Antimycobacterial Activity MIC M. aurum
[25] = Mycobacterium tuberculosis, H37RA; read-out: Antimycobacterial Activity MIC Mtb H37Ra

COc1cccc(Cn2c(C)nc3ccccc3c2=O)c1 [Compound 2]
Antimycobacterial Activity MIC M. kans. (M. kansasii): 100 µg/mL
Antimycobacterial Activity MIC Mtb H37Rv (Mtb H37Rv; Microplate Alamar Blue assay): 100 µg/mL
Antimycobacterial Activity MIC M. aurum (M. aurum): 125 µg/mL
Antimycobacterial Activity MIC M. aurum (M. aurum; [13]): 125 µg/mL
IC50 (HepG2 [1]; [14]): 305 ± 3 µM
IC50 (HepG2 [1]; read-out: IC50 for HepG2 [72 h], 72 h incubation): 135 ± 6 µM
Antimycobacterial Activity MIC M. avium (M. avium): 62.5 µg/mL
Antimycobacterial Activity MIC M. avium (M. avium; [13]): 62.5 µg/mL
Antimycobacterial Activity MIC Mtb H37Ra (Mtb H37Ra): 62.5 µg/mL
Antimycobacterial Activity MIC Mtb H37Ra (Mtb H37Ra; [13]): 62.5 µg/mL
IC50 (MRC-5 [2]; [15]): > 300 µM
IC50 (MRC-5 [2]; read-out: IC50 for MRC-5 [72 h], 72 h incubation): 215 ± 24 µM
Antimycobacterial Activity MIC M. smeg. (M. smegmatis): 250 µg/mL
Antimycobacterial Activity MIC M. smeg. (M. smegmatis; [13]): 250 µg/mL

Cc1nc2ccccc2c(=O)n1Cc1cccc(Cl)c1 [Compound 6]
Antimycobacterial Activity MIC M. kans. (M. kansasii): 25 µg/mL
Antimycobacterial Activity MIC M. kans. (M. kansasii; [13]): 25 µg/mL
Antimycobacterial Activity MIC Mtb H37Rv (Mtb H37Rv; Microplate Alamar Blue assay): 50 µg/mL
Antimycobacterial Activity MIC Mtb H37Rv (Mtb H37Rv; [13]): 50 µg/mL
Antimycobacterial Activity MIC M. aurum (M. aurum): 62.5 µg/mL
Antimycobacterial Activity MIC M. aurum (M. aurum; [13]): 62.5 µg/mL
IC50 (HepG2 [1]; [14]): 507 ± 48 µM
Antimycobacterial Activity MIC M. avium (M. avium): 31.25 µg/mL
Antimycobacterial Activity MIC M. avium (M. avium; [13]): 31.25 µg/mL
Antimycobacterial Activity MIC Mtb H37Ra (Mtb H37Ra): 31.25 µg/mL
Antimycobacterial Activity MIC Mtb H37Ra (Mtb H37Ra; [13]): 31.25 µg/mL
IC50 (MRC-5 [2]; [15]): 551 ± 19 µM
Antimycobacterial Activity MIC M. smeg. (M. smegmatis): 62.5 µg/mL
Antimycobacterial Activity MIC M. smeg. (M. smegmatis; [13]): 62.5 µg/mL

COc1ccc(Cn2c(C)nc3cc(Cl)ccc3c2=O)cc1 [Compound 17]
MIC (M. kansasii): > 100 µg/mL
MIC (Mtb H37Rv; [16]): 12.5 µg/mL
MIC (Mtb H37Rv; [17]): 40 µM
MIC (Mtb H37Rv; read-out: Antimycobacterial Activity MIC Mtb H37Rv, Table S5 matching pairs series A and B): > 100 µg/mL
IC50 (HepG2 [3]; [18]): > 50 µM
IC50 (HepG2 [3]; [19]): > 50 µM
Antimycobacterial Activity MIC M. aurum (M. aurum): 15.625 µg/mL
MIC (M. aurum; Mycolicibacterium aurum, read-out: Antimycobacterial Activity MIC M. aurum): 15.6 µg/mL (≈ 49.6 µM)
IC50 (MRC-5 [4]; [20]): > 100 µM
IC50 (MRC-5 [4]; [21]): > 100 µM
MIC (MDR Mtb H37Rv): 40 µM (≈ 12.6 µg/mL)
MIC (M. avium): ≥ 500 µg/mL
Antimycobacterial Activity MIC M. avium (M. avium; [13]): ≥ 500 µg/mL
Antimycobacterial Activity MIC Mtb H37Ra (Mtb H37Ra): 7.81 µg/mL
MIC (Mtb H37Ra; Mycobacterium tuberculosis, H37RA, read-out: Antimycobacterial Activity MIC Mtb H37Ra): 7.81 µg/mL
MIC (Mtb H37Ra; [22]): 25 µM
MIC Bacteria, incl. SA (Bacteria, incl. SA): inactive
MIC Fungi (Fungi): inactive
Antimycobacterial Activity MIC M. smeg. (M. smegmatis): 31.25 µg/mL
MIC (M. smegmatis; [23]): 31.2 µg/mL (≈ 99.3 µM)

Cc1nc2cc(Cl)ccc2c(=O)n1Cc1ccc(F)cc1 [Compound 19]
MIC (M. kansasii): > 100 µg/mL
MIC (Mtb H37Rv; [16]): 25 µg/mL
MIC (Mtb H37Rv; [17]): 83 µM
IC50 (HepG2 [3]; [18]): > 50 µM
IC50 (HepG2 [3]; [19]): > 50 µM
MIC (M. aurum; [24]): 31.2 µg/mL (≈ 103 µM)
IC50 (MRC-5 [4]; [20]): > 100 µM
IC50 (MRC-5 [4]; [21]): > 100 µM
MIC (MDR Mtb H37Rv): 41 to 165 µM (≈ 12.4 to 50 µg/mL)
MIC (M. avium): 15.6 µg/mL (≈ 51.6 µM)
MIC (Mtb H37Ra; [22]): 26 µM
MIC (Mtb H37Ra; [25]): 7.81 µg/mL
MIC Bacteria, incl. SA (Bacteria, incl. SA): inactive
MIC Fungi (Fungi): inactive
MIC (M. smegmatis; Mycolicibacterium smegmatis; read-out: Antimycobacterial Activity MIC M. smeg.): 31.2 µg/mL (≈ 103 µM)

Cc1nc2cc(Cl)ccc2c(=O)n1/N=C/c1ccc(O)c([N+](=O)[O-])c1 [Compound 25]
MIC (M. kansasii): > 100 µg/mL
MIC (Mtb H37Rv; [16]): 12.5 µg/mL
MIC (Mtb H37Rv; [17]): 35 µM
IC50 (HepG2 [3]; [18]): > 1000 µM
MIC (M. aurum; [24]): ≥ 62.5 µg/mL
nontoxic for human cell lines up to (HepG2 [1]; HepG2): up to 1000 μM
IC50 (MRC-5 [4]; [20]): > 1000 µM
MIC (MDR Mtb H37Rv): 17 to 70 µM (≈ 6.1 to 25.1 µg/mL)
MIC (M. avium): 62.5 µg/mL (≈ 174 µM)
MIC (Mtb H37Ra; [22]): 87 µM
MIC (Mtb H37Ra; [25]): 31.2 µg/mL
MIC Bacteria, incl. SA (Bacteria, incl. SA): inactive
nontoxic for human cell lines up to (MRC-5 [2]; MRC-5): up to 1000 μM
MIC Fungi (Fungi): inactive
MIC (M. smegmatis; [23]): 31.2 µg/mL (≈ 87.1 µM)

C[C@@H]1[C@H](O)[C@@H](C)/C=C/C=C/C=C/C=C/C=C/C=C/C=C/[C@H](O[C@@H]2O[C@H](C)[C@@H](O)[C@H](N)[C@@H]2O)C[C@@H]2O[C@](O)(C[C@@H](O)C[C@@H](O)[C@H](O)CC[C@@H](O)C[C@@H](O)CC(=O)O[C@H]1C)C[C@H](O)[C@H]2C(=O)O [amphotericin B]
IC90 ([5]; Lodderomyces parapsilosis, 24 h; read-out: IC90, spectrophotometric detection, Candida parapsilosis): 0.5 µg/mL (≈ 0.541 µM)
MIC ([5]; Lodderomyces parapsilosis, 24 h; read-out: MIC, visual detection, Candida parapsilosis): 0.5 µg/mL (≈ 0.541 µM)
IC90 ([6]; read-out: IC90, spectrophotometric detection, Candida albicans): 0.5 µg/mL (≈ 0.541 µM)
IC90 ([7]; 26 °C, read-out: IC90, spectrophotometric detection, Trichophyton interdigitale): 2 µg/mL (≈ 2.16 µM)
MIC ([7]; 26 °C): 2 µg/mL (≈ 2.16 µM)
IC90 ([8]; read-out: IC90, spectrophotometric detection, Candida tropicalis): 1 µg/mL (≈ 1.08 µM)
MIC [8]: 1 µg/mL (≈ 1.08 µM)
IC90 ([9]; Pichia kudriavzevii, 24 h; read-out: IC90, spectrophotometric detection, Candida krusei): 1 µg/mL (≈ 1.08 µM)
MIC ([9]; Pichia kudriavzevii, 24 h; read-out: MIC, visual detection, Candida krusei): 1 µg/mL (≈ 1.08 µM)
IC90 ([10]; read-out: IC90, spectrophotometric detection, Lichtheimia corymbifera): 0.5 µg/mL (≈ 0.541 µM)
MIC [10]: 0.5 µg/mL (≈ 0.541 µM)
IC90 ([11]; read-out: IC90, spectrophotometric detection, Aspergillus fumigatus): 1 µg/mL (≈ 1.08 µM)
MIC [11]: 1 µg/mL (≈ 1.08 µM)
IC90 ([12]; read-out: IC90, spectrophotometric detection, Aspergillus flavus): 8 µg/mL (≈ 8.66 µM)
MIC [12]: 8 µg/mL (≈ 8.66 µM)

C[C@@H](c1ncncc1F)[C@](O)(Cn1cncn1)c1ccc(F)cc1F [voriconazole]
IC50 ([5]; Lodderomyces parapsilosis, 24 h, read-out: IC50, spectrophotometric detection, Candida parapsilosis): 0.03 µg/mL (≈ 0.0859 µM)
MIC ([5]; Lodderomyces parapsilosis, 24 h, read-out: MIC, visual detection, Candida parapsilosis): 8 µg/mL (≈ 22.9 µM)
IC50 ([6]; read-out: IC50, spectrophotometric detection, Candida albicans): 0.03 µg/mL (≈ 0.0859 µM)
MIC ([6]; read-out: MIC, visual detection, Candida albicans): > 16 µg/mL
IC50 ([7]; read-out: IC50, spectrophotometric detection, Trichophyton interdigitale): > 16 µg/mL
MIC [7]: > 16 µg/mL
MIC [8]: > 16 µg/mL
MIC ([9]; Pichia kudriavzevii, 24 h, read-out: MIC, visual detection, Candida krusei): 0.5 µg/mL (≈ 1.43 µM)
IC50 ([10]; read-out: IC50, spectrophotometric detection, Lichtheimia corymbifera): > 16 µg/mL
MIC [10]: > 16 µg/mL
IC50 ([11]; read-out: IC50, spectrophotometric detection, Aspergillus fumigatus): 0.5 µg/mL (≈ 1.43 µM)
MIC [11]: 1 µg/mL (≈ 2.86 µM)
IC50 ([12]; read-out: IC50, spectrophotometric detection, Aspergillus flavus): 4 µg/mL (≈ 11.5 µM)
MIC [12]: > 16 µg/mL
